From US5294603A, “Pharmaceutical compositions containing didemnins” (The Board of Trustees of The University of Illinois, priority 1992, dated 1994)
Converted amounts (≈) assume the structure as drawn. “Also recorded” adds a separate entry of the source. Where two headings read alike, the source gives them in different places. Numbered stars: 1 amine (or outer) side, 2 acyl side, 3 side chain; on linkers, the order of the positions; unused ones are H or OH. Bridge positions count the residues as written; N and C are the ends. Square brackets hold non-standard residues; d marks the D form. Peptide text beside a SMILES is read from it. * marks the point of attachment. X14 = CC[C@H](C)[C@@H](N[*:1])[C@@H](O)CC(=O)O[C@@H](C(C)C)[C@@H](O)[C@H](C)C(=O)[*:2]; X4 = CC[C@H](C)[C@@H](N[*:1])[C@@H](O)CC(=O)O[C@@H](C(=O)[C@H](C)C(=O)[*:2])C(C)C; X1 = CC[C@H](C)[C@@H](N[*:1])[C@@H](O)CC(=O)O[C@H](C(=O)[C@H](C)C(=O)[*:2])C(C)C; NMeY = CN[C@@H](Cc1ccc(O)cc1)C(=O)O; dNMeL = CN[C@H](CC(C)C)C(=O)O; Isobutyryl = CC(C)C(=O)*; Pyruvoyl = CC(=O)C(=O)*

Key:
[1] = system: DNA synthesis in Nb2 node lymphoma cells; assay: Inhibition of ongoing DNA synthesis in prolactin-stimulated Nb2 cells; assay type: cell-based, rat; conditions: Nb2 cells stimulated with prolactin for 24 h
Experimental: (§1) Also inhibitions of protein and DNA synthesis of several compounds were measured using Nb2 node lymphoma cells which were stimulated by a treatment of cells with prolactin. (ibid.)
(§2) ^a Nb2 cells were stimulated with prolactin for 24 h, then exposed to
(§3) ^b 50% Inhibitory concentration, calculated with linear regression

[2] = system: Nb2 cells, rat T-cell node lymphoma; assay: Competitive binding with [3H]didemnin B to Nb2 cells; conditions: 3 h at 37° C.
Experimental: The immunosuppressive assay was performed by measuring competitive binding of tested compounds with [^3 H]didemnin B to Nb2 cells, rat T-cell node lymphoma. See, Russell, D. H., et al., J. Immunology, 1987, 138, 276-284.
^a Competing didemnins incubated with approximately 25 ng of [^3

L1210 = L1210 cytotoxicity, inhibition at fixed doses (Table 10); assay type: cell-based, murine; conditions: tested 4/18/1991
[3] = system: Protein synthesis in Nb2 node lymphoma cells; assay: Inhibition of ongoing protein synthesis in prolactin-stimulated Nb2 cells; assay type: cell-based, rat; conditions: Nb2 cells stimulated with prolactin for 24 h
Experimental: as §1, §2, §3

[4] = system: L1210 murine leukemia cells; conditions: Table 9
[5] = earlier work of Gloer; cited from earlier work
Visna virus (VIV) = assay type: cell-based
[6] = earlier work, Rinehart et al. 1988; cited from earlier work
VSV = assay type: cell-based, vesicular stomatitis virus
HSV-1 = assay type: cell-based, Herpes simplex virus Type I
[7] = system: BHK = Baby hamster kidney cells
Lewis lung carcinoma = assay: In vivo antitumor activity, Lewis lung; parameters: species or system mice
Experimental: (§4) Compound 106 was prepared semisynthetically for in vivo antitumor testing in mice.
(§5) ^b Schedule 1-9 days i. p.
^f Lewis lung carcinoma, median tumor volume of control mice 1372

B16 melanoma = assay: In vivo antitumor activity, B16; parameters: species or system mice; conditions: for T/C (treated/control): significant >125%
Experimental: as §4, §5
^e B16 melanoma. Median survival of control mice, 17.0 days.

P388 murine lymphoma = assay: In vivo antitumor activity, P388; parameters: species or system mice; conditions: for T/C (treated/control): significant >125%
Experimental: as §4, §5
^d P388 murine lymphoma. Median survival of control mice, 10.0 days.

## CC[C@H](C)[C@@H](NC(=O)[C@@H](NC(=O)[C@@H](CC(C)C)NC)[C@@H](C)O)[C@@H](O)CC(=O)O[C@H](C(=O)[C@H](C)C(=O)N[C@@H](CC(C)C)C(=O)N1CCC[C@H]1C(=O)N(C)[C@@H](Cc1ccc(OC)cc1)C(=O)O)C(C)C [Acyclodidemnin A (16), Acyclodidemnin A] (H-[dNMeL]T[X1]LP[NMeY](Me)-OH)
[1]
  IC50 DNA: inactive (1 g)
CV-1 monkey kidney cells
  CV-1: 0
[2]; 0.001 μg/mL
  Inhibition of [3H]didemnin B binding (%): 0%
[2]; 0.01 μg/mL
  Inhibition of [3H]didemnin B binding (%): 7%
[2]; 0.1 μg/mL
  Inhibition of [3H]didemnin B binding (%): 6%
[2]; 1 μg/mL
  Inhibition of [3H]didemnin B binding (%): 8%
L1210; dose 25 ng/mL
  Inhibition (%): 25%
L1210; dose 250 ng/mL
  Inhibition (%): 99%
[3]
  IC50 Protein: inactive (1 g)
[4]
  Cytotoxicity L1210 IC50: 30 ng/mL

## CC[C@H](C)[C@@H]1NC(=O)[C@@H](NC(=O)[C@H](CC(C)C)N(C)C(C)=O)[C@H](C)OC(=O)[C@H](Cc2ccc(OC)cc2)N(C)C(=O)[C@@H]2CCCN2C(=O)[C@H](CC(C)C)NC(=O)[C@@H](C)C(=O)[C@H](C(C)C)OC(=O)C[C@@H]1OC(C)=O [Diacetyldidemnin A (32), N,O-Diacetyldidemnin A]
[5]
  cytotoxicity compared with Compound 1: weaker cytotoxicity than Compound 1
Visna virus (VIV); Table 9, 0.1 μg/mL
  VIV Protection: < 0%
[6]
  antiviral activity (in vitro): improvement of the antiviral activity
[4]
  Cytotoxicity L1210 IC50: 15 ng/mL

## CC[C@H](C)[C@H]1NC(=O)[C@@H](NC(=O)[C@@H](CC(C)C)N(C)C(=O)[C@@H]2CCCN2C(=O)[C@H](C)O)[C@@H](C)OC(=O)[C@H](Cc2ccc(O)cc2)NC(=O)[C@@H]2CCCN2C(=O)[C@H](CC(C)C)NC(=O)[C@@H](C)C(=O)[C@H](C(C)C)OC(=O)C[C@@H]1O [Didemnin N (13), Didemnin N]
[1]
  IC50 DNA: 200,000 ng/mL
CV-1 monkey kidney cells
  CV-1: 0
[2]; 0.001 μg/mL
  Inhibition of [3H]didemnin B binding (%): 3%
[2]; 0.01 μg/mL
  Inhibition of [3H]didemnin B binding (%): 6%
[2]; 0.1 μg/mL
  Inhibition of [3H]didemnin B binding (%): 4%
[2]; 1 μg/mL
  Inhibition of [3H]didemnin B binding (%): 10%
[4]
  Cytotoxicity L1210 IC50: 30 ng/mL

## CC[C@H](C)[C@H]1NC(=O)[C@@H](NC(=O)[C@@H](CC(C)C)NC)[C@@H](C)OC(=O)[C@H](Cc2ccc(OC)cc2)N(C)C(=O)[C@@H]2CCCN2C(=O)[C@H](CC(C)C)NC(=O)[C@@H](C)C(=O)[C@@H](C(C)C)OC(=O)C[C@@H]1O [Epididemnin A (15), Epididemnin A] (H-[dNMeL]T[X4]LP[NMeY](Me); ester 2-C)
[1]
  IC50 DNA: inactive (1 g)
CV-1 monkey kidney cells
  CV-1: 0
[2]; 0.001 μg/mL
  Inhibition of [3H]didemnin B binding (%): 0%
[2]; 0.01 μg/mL
  Inhibition of [3H]didemnin B binding (%): 3%
[2]; 0.1 μg/mL
  Inhibition of [3H]didemnin B binding (%): 9%
[2]; 1 μg/mL
  Inhibition of [3H]didemnin B binding (%): 12%
Visna virus (VIV)
  VIV Protection: < 0
[4]
  Cytotoxicity L1210 IC50: 300 ng/mL

## CC[C@H](C)[C@H]1NC(=O)[C@@H](NC(=O)[C@@H](CC(C)C)N(C)C(=O)[C@H]2CCCN2C(=O)C(C)=O)[C@@H](C)OC(=O)[C@H](Cc2ccc(OC)cc2)N(C)C(=O)[C@@H]2CCCN2C(=O)[C@H](CC(C)C)NC(=O)[C@@H](C)C(=O)[C@H](C(C)C)OC(=O)C[C@@H]1O [Pyruv-D-Pro-DA, Pyruv-D-Pro Didemnin A] (Pyruvoyl-[dP][dNMeL]T[X1]LP[NMeY](Me); ester 3-C)
VSV
  VSV: + ++
L1210 cells
  IC50: 6 ng/mL (≈ 5.4 nM)
  cytotoxicity compared with DDB: only partially active

## CC[C@H](C)[C@H]1NC(=O)[C@@H](NC(=O)[C@@H](CC(C)C)NC)[C@@H](C)OC(=O)[C@H](Cc2ccc(OC)cc2)N(C)C(=O)[C@@H]2CCCN2C(=O)[C@H](CC(C)C)NC(=O)[C@@H](C)[C@H](O)[C@H](C(C)C)OC(=O)C[C@@H]1O [[Dihydro(2S,3S,4S)Hip^2]didemnin A, reference compound] (H-[dNMeL]T[X14]LP[NMeY](Me); ester 2-C)
[5]
  cytotoxicity compared with Compound 1: weaker cytotoxicity than Compound 1

## CC[C@H](C)[C@H]1NC(=O)[C@@H](NC(=O)[C@@H](CC(C)C)N(C)C(=O)[C@@H]2CCCN2C(=O)C(C)C)[C@@H](C)OC(=O)[C@H](Cc2ccc(OC)cc2)N(C)C(=O)[C@@H]2CCCN2C(=O)[C@H](CC(C)C)NC(=O)[C@@H](C)C(=O)[C@H](C(C)C)OC(=O)C[C@@H]1O [[Isobutyryl^9]didemnin B] (Isobutyryl-P[dNMeL]T[X1]LP[NMeY](Me); ester 3-C)
HSV-1
  HSV-1: ++ +
[2]; 0.001 μg/mL
  Inhibition of [3H]didemnin B binding (%): 2%
[2]; 0.01 μg/mL
  Inhibition of [3H]didemnin B binding (%): 4%
[2]; 0.1 μg/mL
  Inhibition of [3H]didemnin B binding (%): 59%
[2]; 1 μg/mL
  Inhibition of [3H]didemnin B binding (%): 75%
Visna virus (VIV)
  VIV Protection: -93
[7]
  BHK: 0, PT
[4]
  Cytotoxicity L1210 IC50: 0.2 ng/mL

## CC[C@H](C)[C@H]1NC(=O)[C@@H](NC(=O)[C@@H](CC(C)C)N(C)C(=O)[C@@H]2CCCN2C(=O)C(C)=O)[C@@H](C)OC(=O)[C@H](Cc2ccc(OC)cc2)N(C)C(=O)[C@@H]2CCCN2C(=O)[C@H](CC(C)C)NC(=O)[C@@H](C)C(=O)[C@H](C(C)C)OC(=O)C[C@@H]1O [[Pyruvyl^9]Didemnin B (106), Dehydrodidemnin B] (Pyruvoyl-P[dNMeL]T[X1]LP[NMeY](Me); ester 3-C)
Lewis lung carcinoma; 40 μg/kg/day
  Median Tumor Vol.: 473 mm^3
  N. P. (Day 14), number of nonpalpable tumors: 0
Lewis lung carcinoma; 40 μg/kg/day i. p. days 1-9
  Body Wt. Chenge.: -2.6 g
Lewis lung carcinoma; 80 μg/kg/day
  Median Tumor Vol.: 163 mm^3
  N. P. (Day 14), number of nonpalpable tumors: 2
Lewis lung carcinoma; 160 μg/kg/day
  Median Tumor Vol.: 0 mm^3
  N. P. (Day 14), number of nonpalpable tumors: 5
Lewis lung carcinoma; 160 μg/kg/day i. p. days 1-9
  Body Wt. Chenge.: -3.7 g
HSV-1
  HSV-1: + +
  antiviral activity against HSV-1: several times more active than DB; also recorded: high order
B16 melanoma; B16, 40 μg/kg/day
  Alive (day 24): 0
  Median Survival: 30 days
  T/C (treated/control): 178%
B16 melanoma; B16, 40 μg/kg/day i. p. days 1-9
  Body wt. chenge.: 0.1 g
B16 melanoma; B16, 80 μg/kg/day
  Alive (day 24): 0
  Median Survival: 32 days
  T/C (treated/control): 188%
B16 melanoma; B16, 80 μg/kg/day i. p. days 1-9
  Body wt. chenge.: -0.5 g
B16 melanoma; B16, 160 μg/kg/day
  Alive (day 24): 0
  Median Survival: 37 days
  T/C (treated/control): 218%
B16 melanoma; B16, 160 μg/kg/day i. p. days 1-9
  Body wt. chenge.: -1.3 g
VSV
  antiviral activity against VSV: high order
P388 murine lymphoma; P388, 80 μg/kg/day
  Alive (day 23): 0
  Median Survival: 19.5 days
  T/C (treated/control): 195%
P388 murine lymphoma; P388, 80 μg/kg/day i. p. days 1-9
  Body wt. chenge.: -1.4 g
P388 murine lymphoma; P388, 160 μg/kg/day
  Alive (day 23): 0
  Median Survival: 21.0 days
  T/C (treated/control): 210%
P388 murine lymphoma; P388, 160 μg/kg/day i. p. days 1-9
  Body wt. chenge.: -3.2 g
P388 murine lymphoma; P388, 320 μg/kg/day
  Alive (day 23): 0
  Median Survival: 6.0 days
  T/C (treated/control): 60%
P388 murine lymphoma; P388, 320 μg/kg/day i. p. days 1-9
  Body wt. chenge.: -3.3 g
Visna virus (VIV)
  VIV Protection: -92
  activity against VIV: completely inactive
[4]
  Cytotoxicity L1210 IC50: 0.2 ng/mL
L1210 cells
  IC50: 0.2 ng/mL (≈ 0.18 nM)
  cytotoxic activity against L1210: several times more active than DB
